Measurements from patent publication US20100004247A1, “COMBINATION COMPRISING A MEK INHIBITOR AND AN AURORA KINASE INHIBITOR 188” (AstraZeneca AB, priority 2007, published 2010).

How the values were obtained:
[1] = Pro-drug conversion to active moiety in human plasma; assay type: in vitro ADME
[2] = tested on: Calu-6 human lung tumour xenografts; assay: In vivo combination study in the Calu-6 human lung cancer xenograft model (tumour growth inhibition); design: species or system female athymic mice (Swiss nu/nu genotype); settings: Day 35; AZD1152 150 mg/kg/day s.c. infusion 2 days; AZD6244 25 mg/kg twice daily oral 14 days; 24 h gap in sequences
Description: To establish the in vivo efficacy of combination therapy of AZD1152 and AZD6244 in Calu-6 human lung xenograft model, experiments were conducted in female athymic mice (Swiss nu/nu genotype, ≧6 weeks of age). Calu-6 human lung tumour xenografts were established in mice by injecting 1×10^6 cells (100 μl volume containing 50% Matrigel®) subcutaneously in the dorsal flank. Tumour volumes were assessed using bilateral Vernier calliper measurement at least twice weekly and calculated using the formula (length×width)×√(length×width)×(π/6), where length was taken to be the longest diameter across the tumour and width the corresponding perpendicular. Mice were randomised into 4 treatment groups (10 mice/group) when the mean tumour volume reached approximately 0.2 cm^3. Following randomisation, mice were treated with drug vehicles for AZD1152 or AZD6244, AZD1152, AZD6244 or a combination of AZD1152 plus AZD6244 according to treatment schedules described below: […]
Tumour growth inhibition was assessed by comparison of the differences in tumour volume between control and treated groups on Day 35 of the study. The effects of combination treatment sequence were assessed by comparing any effect on tumour growth in the group of animals receiving AZD1152 and AZD6244 with tumour growth in the groups where animals received single agent therapy alone. […]

SMILES	conversion of pro-drug to the active moiety AZD1152 HQPA [1]	growth inhibition of Calu-6 tumours compared to the vehicle-dosed group [2] [%]
CCN(CCCOc1ccc2c(Nc3cc(CC(=O)Nc4cccc(F)c4)n[nH]3)ncnc2c1)CCOP(=O)(O)O [AZD1152, 2-{[3-({4-[(5-{2-[(3-fluorophenyl)amino]-2-oxoethyl}-1H-pyrazol-3-yl)amino]quinazolin-7-yl}oxy)propyl](ethyl)amino}ethyl dihydrogen phosphate]	rapidly and completely converted	94.7
Cn1cnc2c(F)c(Nc3ccc(Br)cc3Cl)c(C(=O)NOCCO)cc21 [AZD6244, 6-(4-Bromo-2-chloro-phenylamino)-7-fluoro-3-methyl-3H-benzoimidazole-5-carboxylic acid (2-hydroxy-ethoxy)-amide]		57.8
